“And” between values parts separate entries of the source, which are not always exact repeats. Equal entries are not always repeated.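 Test compounds were applied to cells in 96-well plates for 48 hours at 5 doses. GI50 marks 50% less growth. TGI is the concentration that stops growth completely.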 Bounds are passed on as bounds.

Among the test systems are HOP-62 NSCLC; HCT-116 colon; SK-MEL-28 melanoma; ACHN renal; K-562 leukemia; LOX IMVI melanoma; SF-539 CNS; SW-620 colon; TK-10 renal; SF-295 CNS.
Experiment in all cases: NCI-60 cell line screen, 48 h

With `Cc1cc(S(=O)(=O)Nc2nc3ccsc3c(=O)n2Cc2ccco2)c(S)cc1Cl`, the GI50 with HOP-62 NSCLC is greater than 100 µM; in the test on HCT-116 colon, greater than 100 µM; in the test on SK-MEL-28 melanoma it was greater than 100 µM; in the test with ACHN renal, greater than 100 µM; with K-562 leukemia it was 25.6 µM; in the test with LOX IMVI melanoma it was greater than 100 µM. Also, the GI50 in the test on SF-539 CNS was greater than 100 µM; in the test with SW-620 colon it was greater than 100 µM; in the test with TK-10 renal, greater than 100 µM; with SF-295 CNS, 62.8 µM. Besides, the TGI with HOP-62 NSCLC, in the test with HCT-116 colon, in the test on SK-MEL-28 melanoma, in the test with ACHN renal, in the test on K-562 leukemia and in the test on LOX IMVI melanoma was greater than 100 µM each time. The TGI in the test with SF-539 CNS, with SW-620 colon, with TK-10 renal and in the test with SF-295 CNS was greater than 100 µM in each case.

Regarding `CCCCCCCCCCCCCC/C(C(=O)OC)=C(/O)C(=O)OCC`, the TGI with HOP-62 NSCLC is greater than 100 µM; with HCT-116 colon, greater than 100 µM; in the test on SK-MEL-28 melanoma, 50.8 µM; in the test on ACHN renal it was greater than 100 µM; in the test on K-562 leukemia, greater than 100 µM; in the test on LOX IMVI melanoma, 39.3 µM. Moreover, the TGI in the test on SF-539 CNS was greater than 100 µM; with SW-620 colon it was greater than 100 µM; in the test with TK-10 renal, greater than 100 µM; in the test on SF-295 CNS, 40.9 µM.

Consider `C/C(=N\NC(=O)CC(=O)Nc1ccc(Cl)cc1)c1cc2ccccc2oc1=O`, for which the TGI with HOP-62 NSCLC, in the test with HCT-116 colon, with SK-MEL-28 melanoma, with ACHN renal, in the test with K-562 leukemia and in the test with LOX IMVI melanoma was greater than 100 µM each time. Moreover, the TGI in the test with SF-539 CNS, in the test on SW-620 colon, with TK-10 renal and with SF-295 CNS was greater than 100 µM throughout.

Regarding `NC1=NC(c2ccccc2)N=C(Nc2ccccc2)N1` (configuration not stated), the GI50 with HOP-62 NSCLC, with HCT-116 colon, with SK-MEL-28 melanoma, in the test with ACHN renal, with K-562 leukemia and in the test on LOX IMVI melanoma was greater than 100 µM throughout. In addition, the GI50 in the test with SF-539 CNS, in the test on SW-620 colon, in the test with TK-10 renal and in the test with SF-295 CNS was greater than 100 µM throughout. Further, the TGI in the test with HOP-62 NSCLC, in the test on HCT-116 colon, in the test with SK-MEL-28 melanoma, with ACHN renal, with K-562 leukemia and with LOX IMVI melanoma was greater than 100 µM each time. Besides, the TGI with SF-539 CNS, with SW-620 colon, in the test with TK-10 renal and in the test with SF-295 CNS was greater than 100 µM each time.

Take `CCC(=O)OC1CCn2c1nc1c2C(=O)C(C)=C(N2CC2)C1=O` (configuration not stated): the GI50 is 0.0189 µM in the test with HOP-62 NSCLC; 0.0229 µM in the test with HCT-116 colon; 0.0368 µM with SK-MEL-28 melanoma; 0.0195 µM with ACHN renal; 0.128 µM and 0.739 µM with K-562 leukemia; 0.0311 µM with LOX IMVI melanoma. The GI50 is 0.0138 µM in the test with SF-539 CNS, 0.0248 µM in the test on SW-620 colon, 0.496 µM with TK-10 renal and 0.0315 µM in the test on SF-295 CNS. Besides, the TGI in the test on HOP-62 NSCLC was 0.0431 µM and 0.143 µM; in the test with HCT-116 colon, 0.779 µM and 0.409 µM; in the test on SK-MEL-28 melanoma it was 0.318 µM and 0.215 µM; in the test on ACHN renal it was 0.0491 µM and 0.411 µM; in the test on LOX IMVI melanoma, 0.0886 µM and 0.243 µM; in the test with SW-620 colon it was 0.244 µM and 0.13 µM. Also, in the test with SF-295 CNS, the TGI is 1.08 µM and 0.151 µM.

Consider `O=C(CC/C(C/C(=N/O)c1ccc(F)cc1)=N/O)N(Cc1ccccc1)Cc1ccccc1`, for which the TGI in the test with HOP-62 NSCLC, in the test on HCT-116 colon, in the test on SK-MEL-28 melanoma, in the test with ACHN renal, in the test with K-562 leukemia and in the test on LOX IMVI melanoma was greater than 100 µM throughout. Besides, the TGI in the test on SF-539 CNS, in the test with SW-620 colon, with TK-10 renal and in the test on SF-295 CNS was greater than 100 µM each time.

As for `N#C/C(=C/C=C(\Cl)c1ccc(Cl)cc1)C(N)=O`, the GI50 in the test on HOP-62 NSCLC is 2.36 µM; with HCT-116 colon, 0.402 µM; in the test on SK-MEL-28 melanoma, 3.28 µM; in the test on ACHN renal, 2.37 µM; with K-562 leukemia, 1.47 µM; in the test on LOX IMVI melanoma, 0.976 µM. The GI50 with SF-539 CNS is 3.19 µM; in the test with SW-620 colon it was 2.1 µM; in the test on TK-10 renal, 1.61 µM; with SF-295 CNS, 1.65 µM. Further, the TGI in the test with HOP-62 NSCLC was 4.33 µM; in the test on HCT-116 colon, 1.49 µM; in the test on SK-MEL-28 melanoma, 9.88 µM; with ACHN renal, 6.39 µM; with K-562 leukemia, greater than 100 µM; with LOX IMVI melanoma, 6.91 µM. Besides, the TGI was 9.27 µM in the test with SF-539 CNS, 4.53 µM in the test on SW-620 colon, 3.31 µM in the test on TK-10 renal and 3.45 µM with SF-295 CNS.

With `FC(F)(F)c1ccc(C=NC23CC4CC(CC(C4)C2)C3)cc1`, the TGI in the test on HOP-62 NSCLC, in the test on HCT-116 colon, in the test on SK-MEL-28 melanoma, in the test on ACHN renal, in the test with K-562 leukemia and in the test on LOX IMVI melanoma was greater than 100 µM throughout. Further, the TGI in the test with SF-539 CNS, with SW-620 colon, in the test with TK-10 renal and with SF-295 CNS was greater than 100 µM each time.

As to `COc1ccc(/C=C(/C(=O)N2CCCC2)c2cc(OC)c(OC)c(OC)c2)cc1N`, the GI50 was 4.07 µM with HOP-62 NSCLC; 1.08 µM with HCT-116 colon; 5.68 µM in the test with SK-MEL-28 melanoma; 5.73 µM in the test with ACHN renal; 0.926 µM with K-562 leukemia; 3.77 µM in the test with LOX IMVI melanoma. In addition, the GI50 is 1.9 µM in the test on SF-539 CNS, 2.48 µM in the test on SW-620 colon, 11.1 µM with TK-10 renal and 1.11 µM with SF-295 CNS. The TGI in the test with HOP-62 NSCLC, with HCT-116 colon, with SK-MEL-28 melanoma, with ACHN renal, with K-562 leukemia and in the test with LOX IMVI melanoma was greater than 100 µM in each case. Besides, the TGI was 6.75 µM with SF-539 CNS, greater than 100 µM in the test with SW-620 colon, greater than 100 µM in the test on TK-10 renal and greater than 100 µM in the test with SF-295 CNS.

The record behind these values is PubChem BioAssay (NCI).
